Patent US20210253718A1, “FRIZZLED5 PROTEIN-BINDING AGENTS” (Modmab Therapeutics Corporation, priority 2016, published 2021)

Key:
FZD8 CRD = target: T1, FZD8 CRD (Homo sapiens, UniProt Q9H461); assay: Flow cytometry of anti-FZD5 Fab binding to CHO cells overexpressing Frizzled CRD
T1 construct: K31-D155; GPI anchor signal (C); expressed in transfected cells; host or cells: CHO cells, lentiviral pLenti-puro
T1 sequence (Q9H461 31-155): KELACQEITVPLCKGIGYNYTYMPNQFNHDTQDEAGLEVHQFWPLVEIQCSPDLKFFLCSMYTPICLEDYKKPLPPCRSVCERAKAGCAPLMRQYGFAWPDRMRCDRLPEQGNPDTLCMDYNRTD
Method: Plasmids: pLCKO lentiviral vector used for knockout (TKO) library construction and expression of individual gRNAs was constructed as described previously (Hart et al., 2015). Briefly, single guide RNA (sgRNA) scaffold was amplified from px330 (Addgene 42230) and cloned into pLKO.TRC005 lentiviral vector (Broad Institute, Cambridge, Mass.) using AgeI/EcoRI restriction sites. BfuAI sites were added at the 5′ end of the sgRNA scaffold for cloning the TKO library or individual gRNA target sequences. Lenti Cas9-2A-BsdR vector used to generate Cas9 stable expression cell lines was constructed as described previously (Hart et al., 2015). Briefly, lentiCRISPR pXPR_001 (Addgene 49535) was modified through removal of the sgRNA scaffold region through NdeI/EcoRI digest and blunt ends generation using Large Klenow Fragment (NEB). 2A-puro was replaced with 2A-BsdR by PCR using the NheI/MluI sites. Each of the 10 human Frizzled cysteine rich domains (CRDs) were cloned into the lentiviral expression plasmid pLenti-puro in the following cassette: FZD_CRD-MYC-GPI.
Flow cytometry: Primary staining of cells was performed by treatment with 200 nM Frizzled profiler Fab. Alexa Fluor 488 AffiniPure F(ab′)2 was used as the secondary antibody (Jackson ImmunoResearch #109-546-097). c-Myc (9E10) IgG1 (primary antibody, Santa Cruz, lot #D0306) and Alexa Fluor 488 IgG (secondary antibody, Life technologies, lot #1458649) were used as controls. Dead cells were excluded by staining with Fixable Viability Dye eFluor 660 (eBioscience, catalogue number 65-0864). All reagents were used as per manufacturer's instructions. Flow cytometry was performed on a BD FACSCanto II flow cytometer (BD Biosciences), and data were analyzed with FlowJo software (FlowJo, LLC).
To confirm that the FZD5-WNT7B circuit is not driven simply by expression and rule out the possibility of a disconnect between RNA and protein levels for the Wnt receptors in HPAF-II cells, a panel of recombinant Fabs were generated, alternatively referred to herein as ‘Frizzled profiler’, that can detect and discriminate all but one of the ten Frizzled receptors. […] To characterize the binding specificity of these Fabs on cells, a panel of 10 CHO cell lines was generated, each expressing the CRD domain of a different myc-tagged Frizzled family member anchored at the plasma membrane through a GPI anchor (CHO-myc-FZDGPI). Despite the high sequence identity between Frizzled family members (FIG. 7A, FIG. 7B), selective Fabs were identified for FZD4, FZD5, FZD6 and FZD10 as assessed by immunofluorescence and flow cytometry (FIG. 7D and FIG. 8). […] The FZD8 CRD is most homologous to that of FZD5 (FIG. 7B). These Fabs can be used to discriminate expression of FZD1, FZD2, FZD4, FZD5, FZD6, FZD7, FZD8, FZD9 and FZD10 (FIG. 7D and FIG. 8). The ‘Frizzled profiler’ therefore consists of 10 different Fabs that can be used to discriminate expression of 9 different Frizzled family members. The Frizzled profiler was then used to confirm that HPAF-II cells express FZD1, FZD5, FZD6 and possibly FZD8 (FIG. 7E).
The binding of anti-FZD5 Fabs to cell surface-expressed Frizzled protein was further determined for each member of the Frizzled family via flow cytometry and immunofluorescence analysis of a panel of 10 CHO cell lines, each ectopically over-expressing the extracellular cysteine-rich domain (CRD) of a different Frizzled protein family member.

PATU8988S cells = assay: Effect of anti-FZD5 Fabs on proliferation of pancreatic cancer cell lines (percent growth inhibition); assay type: cell-based, human; settings: Fab 2 μg/ml
ASPC-1 cells = assay: as above; assay type: cell-based, human; settings: Fab 2 μg/ml
RWP1 cells = assay: as above; assay type: cell-based, human; settings: Fab 2 μg/ml

Fab-2931: anti-FZD5 Fab with antibody variable region Fv-2931; CDR SEQ ID NOs: 35, 36, 70, 102, 146, 176 (CDR 1 QSVSSA; CDR 2 SAS; CDR 3 QQSSYSLIT; CDR 4 GFNLSYSS; CDR 5 ISPYSGST; CDR 6 ARGSYWYVGGGWWVSGHGGMDY)
Median fluorescence, Frizzled CRD overexpressed on CHO cells: FZD8 (FZD8 CRD): 7.43
percent growth inhibition, PATU8988s 2 μg/ml (PATU8988S cells): −20.00%
percent growth inhibition, ASPC-1 2 μg/ml (ASPC-1 cells): 10.33%
percent growth inhibition, RWP1 2 μg/ml (RWP1 cells): 15.35%
